Literature values, collected in PMC11255275, “Structural insights into the triple agonism at GLP-1R, GIPR and GCGR manifested by retatrutide” (Cell Discovery, 2024).

Tests used:
GLP-1R = settings: among GLP-1R, GIPR and GCGR; general statement in introduction; cited from earlier work
Description: (§1) The most successful treatments currently available include glucagon-like peptide-1 (GLP-1) receptor agonists (GLP-1RAs), exemplified by semaglutide (approved in 2017, $19.9 billion sales in 2023)[3] and tirzepatide (approved in 2022, $5.3 billion sales in 2023)[4].

GIPR = settings: in addition to GLP-1R; cited from earlier work
Description: as §1

Substance	receptor activation (GLP-1R)	receptor activation (GIPR)
semaglutide	solely activates GLP-1R	
tirzepatide		also activates glucose-dependent insulinotropic polypeptide (GIP) receptor (GIPR)
